Experiments:
OVCAR‐8 cells [1] = experiment: Caspase-3 and GSDME cleavage, western blot; assay type: cell-based, human; conditions: OVCAR-8, 50 µM cisplatin for 24 h
From the text: Regulated cell death via an inducer is concentration and time‐dependent and therefore controllable. On the other hand, unregulated cell death cannot be controlled to the same extent as it mainly results from mechanical forces or temperature. The unregulated cell death releases an instantaneous burst of DAMPs, while the DAMP release from regulated cell death is prolonged. Therefore, regulated ICD is desired for a controlled immune response. Regulated necrotic cell deaths are caspase‐dependent.^[ [50], [51] ^] To identify whether [II]‐induced cell death is regulated, we analyzed the cleavage of caspase‐3, a known mediator of apoptosis, and GSDME mediated pyroptosis (regulated necrosis).^[ [2], [52] ^] We compared the caspase‐3 cleavage among different cell death modalities; we used cisplatin ‐ a known apoptosis inducer in the OVCAR‐8 cell line.^[ [53] ^] We also used heat treatment to induce multiple cell death modalities, including necrosis, apoptosis, and necroptosis.^[ [54] ^] Additionally, we applied a freeze/thaw (F/T) method, a common technique to induce unregulated necrosis.^[ [55] ^] […]
Protein samples were diluted in Laemmli buffer and boiled for 5 min at 96 °C. […] Lastly, western blotting luminol reagent solution was added on top of the membranes, and chemiluminescence signal was detected by Azure c600 Imaging Biosystems.

OVCAR‐8 cells [2] = experiment: Live-dead imaging of OVCAR-8 cells; assay type: cell-based, human; conditions: OVCAR-8, 0.5 mM peptide, 6 h, RPMI with 10% FBS; negative peptide added first, then positive
Description: We used the human ovarian cancer cell line OVCAR‐8 as our initial model to identify the effect of the peptides on cells. All cell culture experiments were performed in an RPMI cell culture medium with 10% FBS. At 0.5 mM (i.e., above the overall CAC), the individual peptides mixed on the cells by promptly adding the first negative, then positive counterparts. The viability of the cells was measured for 6h through live‐dead imaging (Figure 3A). […] Because the peptides, if aggregate, form one‐dimensional structures, the shape of the aggregates is not likely to be effective on the action of the peptides. [II] has the lowest CAC and highest ordered aggregation (Figure 2B–D). Additionally, the equilibrium time of [II] aggregations was the shortest among the tried groups (Table 1 ). These all indicate that [II] peptides have the highest affinity to each other, which creates aggregations strong and fast enough to induce cell death.
To understand the effect of peptide aggregates versus peptides alone on the cell death identified with [WW] and [II], we performed a live/dead assay with individual peptides at 0.5 mM after 6h (Figure 3A). […] Similarly, the negative [WW] […] Positive charged peptides containing W are promiscuous residues for membrane damaging peptides, possibly because of W's “anchoring” role; W is abundant in membrane proteins, particularly near the lipid–water interface.^[ [37], [38] ^]
Positively and negatively charged self‐assembling peptides were mixed 30 min prior to experiment except where otherwise stated. The viability of the cell lines was measured by using CellTiter‐Glo 2.0 Reagent (Promega G9248). The luminescent signal was measured in accordance with the manufacturer's instructions. Measurements were carried out with BioTek Neo2SM microplate reader and relative viability was calculated. Live‐Dead assay was carried out using Viability/Cytotoxicity Assay kit (BIOTIUM 30002). After peptide treatment, cells were treated with calcein and ethidium homodimer in accordance with the manufacturer's instructions. […]

Compound | Caspase-3 cleavage (OVCAR‐8 cells [1]) | Cell viability / cell death, live-dead imaging (OVCAR‐8 cells [2])
N.N.[Cl][Pt][Cl] [Cisplatin, cisplatin] | showed caspase‐3 cleavage | 
EFFWWE |  | did not show any cell death
KFFIIK |  | does not cause cell death
KFFWWK |  | induced the cell death

From article PMC9313945, “Peptide Aggregation Induced Immunogenic Rupture (PAIIR)” (Advanced Science, 2022)
